Where two headings read alike, the source gives them in different places.
Experiments:
Recombinant TDO = target: T1, Recombinant TDO (Homo sapiens, UniProt P48775); assay: TDO enzymatic assay; type: biochemical
T1 construct: His tag (C); made in house; host or cells: E. coli
Procedure: Recombinant TDO was overexpressed and purified from E. coli cells with a C-terminal His tag. TDO enzymatic assay was performed using the same methodology as IDO1 enzymatic assay except that 100 nM TDO and 0.5 mM L-tryptophan (Km concentration) were used in the TDO assay.

[1] = target: T2, cellular IDO1 in HeLa cells (Homo sapiens, UniProt P14902); assay: HeLa cell-based IDO1 Kyn (kynurenine) production assay; conditions: Table 2, 8-substituted imidazo[1,5-a]pyridines, IFN-γ 100 ng/mL, 48 hours
T2 construct: endogenous in cells; host or cells: HeLa cells (American Type Tissue Culture Collection), induced with human recombinant IFN-γ
Procedure, shortened: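 IFN-γ-induced HeLa cells (100 ng/mL) in phenol red-free DMEM with 0.4 mM L-Trp, compounds added together with IFN-γ, 48 h at 37 °C. Supernatant Kyn read at 480 nm after TCA precipitation and 4-(dimethylamino)benzaldehyde reaction. IC50 from four-parameter logistic fit.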

Recombinant IDO1 = target: T3, Recombinant IDO1 (Homo sapiens, UniProt P14902); assay: IDO1 enzymatic assay; type: biochemical
T3 construct: His tag (N); made in house; host or cells: E. coli
Procedure, shortened: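 N-terminally His-tagged enzyme from E. coli (50 nM) was incubated with compound, 1.3 mM D-tryptophan, 5 mM ascorbate, 6.25 μM methylene blue and 0.4 mg/mL catalase in 50 mM potassium phosphate pH 7.5, 0.1% BSA for 1.5 h at 24° C. N′-formylkynurenine formation was followed at 321 nm for 1 h; IC50 from rate slopes.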

[2] = Table 2, 8-substituted imidazo[1,5-a]pyridines, 100 nM TDO, 0.5 mM L-tryptophan, read-out: Enzyme IC50 (nM) TDO
[3] = Table 2, 8-substituted imidazo[1,5-a]pyridines, 50 nM IDO1, 1.3 mM D-tryptophan, read-out: Enzyme IC50 (nM) IDO1

T2 sequence (P14902 whole entry): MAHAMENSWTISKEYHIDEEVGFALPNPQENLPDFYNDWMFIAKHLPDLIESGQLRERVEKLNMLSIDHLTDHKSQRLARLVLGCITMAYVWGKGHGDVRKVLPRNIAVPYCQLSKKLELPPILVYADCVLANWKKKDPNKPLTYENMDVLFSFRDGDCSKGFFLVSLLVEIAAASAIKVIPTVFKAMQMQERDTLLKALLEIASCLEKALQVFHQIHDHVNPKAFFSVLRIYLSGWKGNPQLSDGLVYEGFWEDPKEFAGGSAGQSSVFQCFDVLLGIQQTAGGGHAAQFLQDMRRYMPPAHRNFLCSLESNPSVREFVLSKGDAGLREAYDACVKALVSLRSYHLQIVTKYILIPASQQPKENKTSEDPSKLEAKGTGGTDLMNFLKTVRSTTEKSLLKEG
T3 sequence (P14902 whole entry): as above
T1 sequence (P48775 whole entry): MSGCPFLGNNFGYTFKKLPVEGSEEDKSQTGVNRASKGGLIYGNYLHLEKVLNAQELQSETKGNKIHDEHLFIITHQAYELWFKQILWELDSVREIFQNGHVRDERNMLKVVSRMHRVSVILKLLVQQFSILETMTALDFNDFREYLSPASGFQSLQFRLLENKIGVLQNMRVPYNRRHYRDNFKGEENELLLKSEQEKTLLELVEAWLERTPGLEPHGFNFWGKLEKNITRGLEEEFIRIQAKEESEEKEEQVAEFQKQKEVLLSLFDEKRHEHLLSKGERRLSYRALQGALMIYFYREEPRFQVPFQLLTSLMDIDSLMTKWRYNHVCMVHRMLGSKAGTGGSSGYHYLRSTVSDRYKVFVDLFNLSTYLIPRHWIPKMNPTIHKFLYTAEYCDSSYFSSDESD

IC50 (Recombinant TDO; [2]) [nM] | EC50 [1] [µM] | IC50 (Recombinant IDO1; [3]) [nM] | IC50 (Recombinant TDO; selectivity examples, read-out: enzymatic IC50 value to TDO) [nM] | IC50 (Recombinant IDO1; selectivity examples, read-out: enzymatic IC50 value to IDO1) [nM] | SMILES
130 | > 10 | 130 |  |  | Cc1cc(C(O)CC2CCCCC2)c2cncn2c1 (stereo not drawn) [Example B012, 2-Cyclohexyl-1-(6-methylimidazo[1,5-a]pyridin-8-yl)ethanol]
190 | > 10 | 240 |  |  | OC(CC1CCCCC1)c1cc(Cl)cn2cncc12 (stereo not drawn) [Example B013, 1-(6-Chloroimidazo[1,5-a]pyridin-8-yl)-2-cyclohexylethan-1-ol]
100 | > 10 | 180 |  |  | OC(c1cc(Cl)cn2cncc12)C1CCCCC1 (stereo not drawn) [Example B014, (6-Chloroimidazo[1,5-a]pyridin-8-yl)(cyclohexyl)methanol]
1000 | 0.439 | 14 |  |  | Cc1ccn2cncc2c1C(O)CC1CCCCC1 (stereo not drawn) [Example B101, 2-cyclohexyl-1-(7-methylimidazo[1,5-a]pyridin-8-yl)ethan-1-ol]
360 | 1.56 | 23 |  |  | Cc1ccn2cncc2c1C(O)C1CCCCC1 (stereo not drawn) [Example B102, cyclohexyl(7-methylimidazo[1,5-a]pyridin-8-yl)methanol]
8000 | 0.575 | 69 |  |  | OC(c1c(I)ccn2cncc12)C1CCCCC1 (stereo not drawn) [Example B103, cyclohexyl(7-iodoimidazo[1,5-a]pyridin-8-yl)methanol]
940 | 2.93 | 38 |  |  | OC(c1c(Cl)ccn2cncc12)C1CCCCC1 (stereo not drawn) [Example B104, (7-chloroimidazo[1,5-a]pyridin-8-yl)(cyclohexyl)methanol]
 | 0.876 |  | 4900 | 33 | OC(CC1CCCCC1)c1c(Cl)ccn2cncc12 (stereo not drawn) [Example B105, 1-(7-chloroimidazo[1,5-a]pyridin-8-yl)-2-cyclohexylethan-1-ol]
1200 | 0.457 | 138 |  |  | CC(C)c1ccn2cncc2c1C(O)C1CCCCC1 (stereo not drawn) [Example B106, Cyclohexyl (7-isopropylimidazo[1,5-a]pyridin-8-yl)methanol]
850 | 0.256 | 48 |  |  | OC(c1c(C2CC2)ccn2cncc12)C1CCCCC1 (stereo not drawn) [Example B107, Cyclohexyl (7-cyclopropylimidazo[1,5-a]pyridin-8-yl)methanol]
560 | 0.389 | 59 |  |  | CC(C)c1ccn2cncc2c1C(O)CC1CCCCC1 (stereo not drawn) [Example B108, 2-Cyclohexyl-1-(7-isopropylimidazo[1,5-a]pyridin-8-yl)ethan-1-ol]
4600 | 0.94 | 35 |  |  | OC(c1c(C2CC2)ccn2cncc12)C1CCCC1 (stereo not drawn) [Example B109]
1000 | 0.259 | 53 |  |  | OC(CC1CCCCC1)c1c(C2CC2)ccn2cncc12 (stereo not drawn) [Example B110]

— patent publication US10280163B2 (BeiGene, Ltd., priority 2015, dated 2019)
